Reference: article PMC10224004, “Modulation of Distribution and Diffusion through the Lipophilic Membrane with Cyclodextrins Exemplified by a Model Pyridinecarboxamide Derivative” (Pharmaceutics, 2023)
Where two headings read alike, the source gives them in different places.

Experiments:
[1] = Shake-flask solubility in 1-octanol and dissolution thermodynamics; format: physicochemical; details: for solubility higher in 1-octanol than in n-hexane: 310.2 K, ratio of molar solubilities
Method: (§1) The solubility of the investigated drugs in 1-octanol and n-hexane was determined by the shake-flask technique. To this end, the glass vials containing the solutions with the excess amount of the compound were placed in an air thermostat and stirred at a predetermined temperature for no less than 24 h (equilibrium state). After this, the suspensions were left for 5 h or more to precipitate the undissolved drug and centrifuged (Biofuge pico, Thermo Electron LED GmbH, Langenselbold, Germany) at a predetermined temperature during 20 min (10,000 rpm). The aliquots of the clear solutions were taken and examined via a spectrophotometer (Cary-50 Varian, Palo Alto, CA, USA, Software Version 3.00 (339)). The molar concentrations of the compounds in the solvents were calculated using calibration curves at the appropriate wavelength characteristic for each substance. The experimental results were reported as an average of at least three replicated experiments with an accuracy of 2–4%. In order to evaluate the thermodynamic parameters of the IPN dissolution in 1-octanol and n-hexane, the molar solubility ( S2 ) was recalculated to the mole fraction ( X2 ) by the equation:(1) X2=M2S2/S2(M1−M2)+1000ρ, where M1 and M2 are the molar masses of IPN and organic solvent, respectively, and ρ (g∙cm^−3) is the density of the pure solvents. The linear functions describing the temperature dependences of the solubility within the temperature interval from 293.2 ± 0.5 K to 313.2 ± 0.5 K for both organic solvents were derived:(2) lnX2=A+B/T
(§2) The apparent solution enthalpies ΔHsol0 were determined by the van’t Hoff equation:(3) ∂(lnX2)/∂T=ΔHsol0/RT^2
(§3) The apparent dissolution Gibbs energies ( ΔGsol ) and entropies ( ΔSsol ) were calculated at a standard temperature of 298.2 K and 310.2 K:(4) ΔGsol298.2/310.2=−RT(lnX2298.2/310.2) (5) ΔGsol298.2/310.2=ΔHsol0−TΔSsol298.2/310.2 where R is the universal gas constant.

[2] = Shake-flask distribution in the 1-octanol/buffer pH 7.4 system; format: physicochemical; details: for Dappoct/buff / logDappoct/buff: 310.2 K, cyclodextrin in buffer phase as in the label; for Molar concentration C2 buf/oct ∙10^3 (aqueous phase) / Molar concentration C2 oct/buf ∙10^3 (organic phase): V(oct):V(buf)= 3:3, molar concentration × 10^3
Method: (§4) Apparent distribution coefficients of the compounds were measured in two systems: 1-octanol/buffer pH 7.4 and n-hexane/buffer pH 7.4 by the shake-flask technique at 310.2 ± 0.5 K in the absence (for IPN, INZ and iNAM) and in the presence of cyclodextrins (HP-β-CD and M-β-CD) in the aqueous phase (for IPN only). The concentrations of cyclodextrins were: 0.0115 M, 0.025 M and 0.035 M. The experiments were carried out according to the literature. In brief, the following experimental procedure was performed. Aqueous buffer pH 7.4 and organic solvent (1-octanol or n-hexane) were mixed during 48 h to obtain mutually saturated phases. The stock solutions containing the drug were prepared in buffer pH 7.4 saturated with the organic solvent. Both aliquots of the aqueous stock solution and organic solvent were placed in screwed glass vials and mixed at 310.2 ± 0.5 K during 3 days. The concentrations of the stock solutions were approximately 6.0 × 10^−3 M for both systems. The volumes of the phases were 3:3 in the 1-octanol/buffer pH 7.4 systems and 6:3 and 10:3 in the n-hexane/buffer pH 7.4 systems, without and with cyclodextrins, respectively. After mixing, the equilibrium was achieved; the vials were maintained at 310.2 ± 0.5 K, and the phases were separated from each other. The drug concentrations were determined using spectrophotometer (Cary-50 Varian, Palo Alto, CA, USA, Software Version 3.00 (339)). The experiments were carried out at least four-fold with an accuracy of 2–4%. The distribution coefficients were calculated using the following equation:(6) DappOrg/buf=C2Org/buf⋅V^buf/Org/C2buf/Org⋅V^Org/buf where DappOrg/buf is the distribution coefficient calculated from the concentrations of the compounds expressed in molar scale, C2Org/buf and C2buf/Org are the molar concentrations of the drug in the mutually saturated organic solvent/buffer and buffer/organic solvent phases, respectively, and V^buf/Org and V^Org/buf are the volumes of the saturated buffer and organic solvent phases, respectively. In addition, the ΔlogD parameters were estimated taking into account the distribution coefficients both in the 1-octanol/buffer pH 7.4 and n-hexane/buffer H 7.4 systems. As Abraham et al. stated, the difference between the distribution parameters in these systems ( ΔlogD ) can be applied to assess the specific interactions including a hydrogen-bonding impact to the drug transport properties and can be calculated as follows:(7) ΔlogD=logDappoct/buf−logDapphex/buf

[3] = ΔlogD parameter (logDapp oct/buf − logDapp hex/buf); format: physicochemical; details: 310.2 K; pH 7.4; cyclodextrin in buffer phase as in the label
Method: as §4, with “The volumes of the phases were 3:3 in the 1-octanol/buffer pH 7.4 systems and 6:3 and 10:3 in the n-hexane/buffer pH 7.4 systems, without and with cyclodextrins, respectively. After mixing, the equilibrium was achieved; the vials were maintained at 310.2 ± 0.5 K, and the phases were separated from each other.” left out, “The experiments were carried out at least four-fold with an accuracy of 2–4%.” left out, “In addition, the ΔlogD parameters were estimated taking into account the distribution coefficients both in the 1-octanol/buffer pH 7.4 and n-hexane/buffer H 7.4 systems.” left out

[4] = Shake-flask distribution in the n-hexane/buffer pH 7.4 system; format: physicochemical; details: for logDapphex/buff / Dapphex/buff ·10^4: 310.2 K; for logDapphex/buff: cyclodextrin in buffer phase as in the label; for Dapphex/buff ·10^4: value = D·10^4, cyclodextrin in buffer phase as in the label; for Molar concentration C2 buf/hex ∙10^3 (aqueous phase): V(hex):V(buf)= 6:3 without and 10:3 with cyclodextrins, molar concentration × 10^3
Method: as §4

[5] = PermeaPad barrier, 310.2 K, cited from earlier work
[6] = design: method as in doi:10.1016/j.jct.2015.08.022; details: cited from earlier work
[7] = Shake-flask solubility in n-hexane and dissolution thermodynamics; format: physicochemical; details: T 310.2 K; value = S2 × 10^3
Method: as §1, §2, §3

[8] = Membrane permeability in Franz diffusion cell; format: in vitro ADME; details: 310.2 K
Method: Membrane permeability coefficients of the studied drugs were measured in the Franz diffusion cell of vertical type (PermeGear, Inc., Hellertown, PA, USA) with 7 mL/1 mL volumes of the donor and acceptor solutions through the reverse dialysis set up. The PermeaPad barrier (PHABIOC, Fritz-Souchon-Str.27 32339 Espelkamp Germany, www.innome.de) (0.785 cm^2 effective surface area) was mounted between the donor and acceptor chambers of the diffusion cell. The temperature was maintained at 310.2 ± 0.5 K throughout the experiment. Samples of 0.5 mL were withdrawn each 30 min from the acceptor solution and replaced with an equal amount of fresh buffer. Permeability experiments lasted over five hours in all cases. The solutions concentrations were analyzed via spectrophotometer (Spectramax 190; Molecular Devices Corporation, San Jose, CA, USA) in 96-well UV black plates (Costar) at a wavelength of 264 nm and 266 nm for IPN and INZ/iNAM, respectively. The dependences of the amount of the permeated drug over the surface area (dQ/A) on time (t) were plotted and flux (J) across the membrane was calculated by the equation:(11) J=dQ/A×dt The apparent permeability coefficients (Papp) were determined by normalizing the flux measured over the concentration of the drug in the donor compartment (C0) by the equation:(12) Papp=J/C0 Each permeability experiment was carried out in triplicate.
Similarly to the distribution, the permeability coefficients were obtained in the absence (for IPN, and iNAM) and in the presence of cyclodextrins (HP-β-CD and M-β-CD) (for IPN only) in the donor solution. The concentrations of cyclodextrins were 0.0115 M, 0.025 M and 0.035 M. The permeability coefficient for INZ through the PermeaPad barrier was determined in our previous investigation and taken in the present study for the sake of comparison.

Compound	solubility higher in 1-octanol than in n-hexane [1]	Dappoct/buff [2]	logDappoct/buff [2]	Molar concentration C2 buf/oct ∙10^3 (aqueous phase) [2]	Molar concentration C2 oct/buf ∙10^3 (organic phase) [2]	ΔlogD [3]	logDapphex/buff [4]	Dapphex/buff ·10^4 [4]	Molar concentration C2 buf/hex ∙10^3 (aqueous phase) [4]	Papp∙10^5 ([5]; pH 7.4, value = Papp × 10^5)	permeability coefficient (Papp) ([5]; without cyclodextrins)	TΔSsol298.2 ([6]; 1-octanol, 298.2 K)	ΔGsol298.2 ([6]; 1-octanol, 298.2 K)	ΔHsol298.2 ([6]; 1-octanol, 298.2 K)	Molar solubility S2 × 10^1 in 1-Octanol ([6]; T 310.2 K, value = S2 × 10^1)	Molar solubility S2 × 10^3 in n-Hexane [7]	Molar solubility S2 × 10^1 in 1-Octanol ([1]; T 310.2 K, value = S2 × 10^1)	steady penetrate rate - flux J∙10^4 ([8]; PermeaPad barrier, pH 7.4, printed value = J × 10^4, cyclodextrin in donor solution as in the label)	Papp∙10^5 ([8]; PermeaPad barrier, pH 7.4, value = Papp × 10^5, cyclodextrin in donor solution as in the label)	Papp at 5 h ([8]; pH 7.4, PermeaPad barrier, without cyclodextrins, read-out: permeability coefficient (Papp))
NNC(=O)c1ccncc1 [INZ, isonicotinic acid hydrazide]	130 fold	0.633 ± 0.021	−0.199	5.31 ∙10^3	3.36 ∙10^3	2.88	−3.083	8.254 ± 0.188 ·10^4	9.54 ∙10^3	1.44±0.08 ∙10^5 (cm∙s‐1)	14.4 ×10⁻⁶ cm/s	2.56 kcal/mol	3.32 kcal/mol	5.88 kcal/mol	^a 1.78 ± 0.04 × 10^1 (M)	1.37 ± 0.05 × 10^3 (M)				
NC(=O)c1ccncc1 [iNAM, pyridine-4-carboxylic acid amide]	115 fold	0.446 ± 0.013	−0.351	6.33 ∙10^3	2.83 ∙10^3	2.89	−3.241	5.742 ± 0.172 ·10^4	8.64 ∙10^3							1.10 ± 0.04 × 10^3 (M)	1.26 ± 0.02 × 10^1 (M)	0.59 ∙10^4 (μM∙cm‐2∙s‐1)	0.73±0.04 ∙10^5 (cm∙s‐1)	7.3 ×10⁻⁶ cm/s
